{"source": "patent US8703753B2", "about": "“Use of tellurium compounds for the treatment of actinic keratosis” (Biomas Ltd., priority 2005, dated 2014)", "origin": "cited, not measured here", "key": {"[1]": {"settings": "rats, intravenous and intramuscular administration"}, "[2]": {"tested_on": "interferon (IFN)", "settings": "mice"}, "[3]": {"tested_on": "interferon (IFN)", "settings": "humans"}, "[4]": {"tested_on": "IL-10"}}, "note": "Where two headings read alike, the source gives them in different places."}
{"smiles": "Cl[TeH]1(Cl)(Cl)OCCO1.N", "note": "[AS101, ammonium trichloro(dioxyethylene-O,O′)tellurate]", "values": [{"measurement": "LD50 relative to the immunologically effective dose", "setting": "[1]", "value": "500-1000 folds"}, {"measurement": "activation of interferon (IFN)", "setting": "[2]", "value": "potent activator"}, {"measurement": "activation of interferon (IFN)", "setting": "[3]", "value": "potent activator"}, {"measurement": "effect on IL-10 at the m-RNA level", "setting": "[4]", "value": "inhibit IL-10"}]}
